Experimental data published in patent US8158580B2, “Pharmaceutical compositions containing a glycopeptide antibiotic and a cyclodextrin” (Theravance, Inc., priority 2000, dated 2012).
Where two headings read alike, the source gives them in different places.

Conditions: female rats; for BUN / Creatinine: 50 mg/kg intravenous infusion, serum at 24 hours; for % Recovered (as unchanged parent) Kidney / % Recovered (as unchanged parent) Liver / % Recovered (as unchanged parent) Urine / Serum Conc.: 2-minute intravenous infusion, 24 hours, Mean (SD)
Procedure: Female Sprague-Dawley rates (three per group) were dosed with Compound A (50 mg/kg) formulated in either hydroxypropyl-β-cyclodextrin or 5% dextrose/water or vehicle. The indicated doses were administered in a volume of 10 mL/kg via a 2-minute intravenous infusion. At 24 hours, the animals were sacrificed and serum and tissue samples collected.

[1] = formulation 1% (w/v) CD (hydroxypropyl-β-cyclodextrin)
[2] = formulation 1% CD (hydroxypropyl-β-cyclodextrin), 50 mg/kg
[3] = formulation 5% (w/v) CD (hydroxypropyl-β-cyclodextrin)
[4] = formulation 5% CD (hydroxypropyl-β-cyclodextrin), 50 mg/kg
[5] = formulation 25% (w/v) CD (hydroxypropyl-β-cyclodextrin)
[6] = formulation 25% CD (hydroxypropyl-β-cyclodextrin), 50 mg/kg
[7] = formulation D5W (aqueous 5% dextrose solution, no cyclodextrin)
[8] = formulation D5W (aqueous 5% dextrose solution, no cyclodextrin), 50 mg/kg
[9] = formulations containing a cyclodextrin compared with formulation without, 50 mg/kg

SMILES: CCCCCCCCCCNCCNC1(C)CC(OC2C(Oc3c4cc5cc3Oc3ccc(cc3Cl)C(O)C3NC(=O)C(NC(=O)C5NC(=O)C(CC(N)=O)NC(=O)C(NC(=O)C(CC(C)C)NC)C(O)c5ccc(c(Cl)c5)O4)c4ccc(O)c(c4)-c4c(cc(O)c(CNCP(=O)(O)O)c4O)C(C(=O)O)NC3=O)OC(CO)C(O)C2O)OC(C)C1O (centres unmarked) [Compound A]
- BUN [1]: 26 ± 5 mg/dL
- Creatinine [1]: 0.34 ± 0.08 mg/dL
- % Recovered (as unchanged parent) Kidney [2]: 5.68 (2.49) %
- % Recovered (as unchanged parent) Liver [2]: 8.47 (0.46) %
- % Recovered (as unchanged parent) Urine [2]: 17.45 (6.92) %
- Serum Conc. [2]: 17.1 (12.1) μg/mL
- BUN [3]: 18 ± 5 mg/dL
- Creatinine [3]: 0.31 ± 0.07 mg/dL
- % Recovered (as unchanged parent) Kidney [4]: 2.08 (0.43) %
- % Recovered (as unchanged parent) Liver [4]: 4.89 (0.81) %
- % Recovered (as unchanged parent) Urine [4]: 40.51 (18.57) %
- Serum Conc. [4]: 1.66 (0.33) μg/mL
- BUN [5]: 13 ± 2 mg/dL
- Creatinine [5]: 0.26 ± 0.02 mg/dL
- % Recovered (as unchanged parent) Kidney [6]: 0.62 (0.12) %
- % Recovered (as unchanged parent) Liver [6]: 1.90 (0.32) %
- % Recovered (as unchanged parent) Urine [6]: 90.91 (8.39) %
- Serum Conc. [6]: 0.86 (0.19) μg/mL
- BUN [7]: 67 ± 2 mg/dL
- Creatinine [7]: 0.72 ± 0.08 mg/dL
- % Recovered (as unchanged parent) Kidney [8]: 17.82 (4.94) %
- % Recovered (as unchanged parent) Liver [8]: 14.19 (3.41) %
- % Recovered (as unchanged parent) Urine [8]: 12.61 (4.60) %
- Serum Conc. [8]: 59.8 (27.1) μg/mL
- liver and kidney accumulation [9]: significantly lower
- urinary recovery [9]: significantly higher
